Measured values published in patent US20090304827A1, “Combinations of Ingredients Having Synergistic Anti-Inflammatory Effects” (priority 2008, published 2009).

Legend:
[1] = test system: LPS-induced PGE2 production; conditions: cited from earlier work
iNOS = conditions: cited from earlier work
[2] = test system: LPS-induced NO production; conditions: cited from earlier work
[3] = test system: LPS-induced nitrite (NO) generation on murine macrophage RAW264.7 cells; experiment: Nitrite assay: LPS-induced nitrite (NO) generation, Griess reaction; type: cell-based; conditions: either singly or in combination
Source text: The term “synergy” refers to the phenomenon in which the combination of two or more discrete agents acting together can cause a greater response than simply the sum of the individual effects of each agent if they were used separately. It is not uncommon to find the presence of two or more chemical constituents or herbs on an organism to be greater than the effect of each chemical constituent or herb individually, or the sum of the individual effects. […]
The nitrite concentration in the medium was measured as an indicator of NO production, a common phenomenon of the inflammation process, according to the Griess reaction. […] One hundred microliters of supernatant was mixed with the same volume of Griess reagent (1% sulfanilamide in 5% phosphoric acid and 0.1% naphthylethylenediamine dihydrocholide in water); absorbance of the mixture at 550 nm was determined with an ELISA plate reader (Dynatech MR-7000; Dynatech Laboratories Inc.).
Various combinations of herbal extracts were investigated for anti-inflammatory effect using nitrite assay. For the study, RAW 264.7 cells were treated with LPS (10 μg/mL) to induce nitrite production, various concentrations and combinations thereof were added, and the nitrite concentration in the medium was measured as an indicator of the inhibition of NO production, a common phenomenon of the inflammation process.

[4] = test system: RAW 264.7 cells activated with bacterial lipopolysaccharide; conditions: LPS 50 ng ml^−1; cited from earlier work

Compound | COX-2 gene expression / activation [1] | LPS-induced PGE2 production [1] | iNOS enzyme activity (iNOS) | LPS-induced NO production [2] | iNOS gene expression / activation [2] | anti-inflammatory property (inhibition of NO production) [3] | NO generation in activated macrophages (nitrite released into the culture medium) [4] | amount of cytosolic iNOS protein and steady state mRNA levels [4]
O=c1cc(-c2ccccc2)oc2cc(O)c(O)c(O)c12 [baicalein] | not | not | did not inhibit | significantly inhibited | significantly inhibited | – | – | –
Tocopherol [vitamin E] | – | – | – | – | – | did not show any noticeable anti-inflammatory property | – | –
O=C(O)[C@H]1O[C@@H](Oc2cc3oc(-c4ccccc4)cc(=O)c3c(O)c2O)[C@H](O)[C@@H](O)[C@@H]1O [Baicalin] | not | not | did not inhibit | significantly inhibited | significantly inhibited | – | – | –
COc1c(O)cc2oc(-c3ccccc3)cc(=O)c2c1O [Oroxylin A] | blocking | potent inhibitor | – | potent inhibitor | blocking | – | – | –
O=C1O[C@H]([C@@H](O)CO)C(O)=C1O [Vitamin C, L-ascorbate] | – | – | – | – | – | did not show any noticeable anti-inflammatory property | – | –
Oc1ccc(C=Cc2cc(O)cc(O)c2)cc1 [Resveratrol] | – | – | – | – | – | – | strongly to inhibit | strongly reduced
COc1c(O)cc(O)c2c(=O)cc(-c3ccccc3)oc12 [wogonin] | inhibited | inhibited | did not inhibit | significantly inhibited | significantly inhibited | – | – | –
